The subject of test [1] is Male Sprague Dawley rats. Nature of the test: Treatment in the momentum exchange impact model. It is filed as in vivo, rat. Particulars: concussed rats, two head impacts; IP 10 mg/kg twice daily 5 days; two weeks post impact; vs sham Control. The procedure: EXAMPLE. Momentum exchange impact model. This model features several advantageous translational differences over some head injury models, such as the controlled cortical impact injury model. For example, the head, neck and body can move with impact, and the velocity of head movement and energy transfer can be calculated and scaled mild to provide range from moderate to severe concussions. Studies are conducted with moderate impacts with neuroradiological evidence of contusions. Male rats are concussed twice with one day. Additional details are described in Viano et al., “Evaluation of three animal models for concussion and serious brain injury” Ann Biomed Eng. 40(1):213-26 (2012). […] Sham non-concussed test animals are given vehicle or test compound. Test animals are treated twice daily for 5 consecutive days. At two weeks post concussion cognitive behaviors are assessed, using for example, the Barnes maze and/or novel recognition models. In addition, motor behaviors are assessed, using for example, beam walk and/or rotarod tests. […]
The pneumatic pressure drive is replicated, 50 g compactor, as described by Viano and reproduced consistently, the 7.4, 9.3, and 11.2 m/s impact velocities described for mild, medium, and severe head injury, respectively. The data described herein are obtained from a 9.12 meters/sec impact velocity, as determined using high-speed video recordings. […]

Test [2] relates to Male Sprague Dawley rats. Briefly: Resting state functional connectivity (fMRI). It is filed as in vivo, rat. Particulars: Treatment group. The text has this:
EXAMPLE. Resting state functional connectivity. Resting-state fMRI scan is collected using spin-echo triple-shot EPI sequence (imaging parameters: matrix size=96×96×20, TR/TE=3000/15 msec, voxel size=[…], slice thickness=1 mm. Preprocessing is illustratively accomplished by combining Analysis of Functional NeuroImages (AFNI_17.1.12, http://afni.nimh.nih.gov/afni/), FMRIB Software library (FSL, v5.0.9, http://fsl.fmrib.ox.ac.uk/fsl/), Deformable Registration via Attribute Matching and Mutual-Saliency Weighting (DRAMMS 1.4.1, https://www.cbica.upenn.edu/sbia/software/dramms/index.html) and MATLAB (Mathworks, Natick, Mass.). Brain tissue masks for resting-state functional images are manually drawn using 3DSlicer (https://www.slicer.org/) and applied for skull-stripping. Normalization is completed by registering functional data to the MRI Rat Brain Template (Ekam Solutions LLC, Boston, Mass.) using affine registration through DRAMMS. The region-to-region functional connectivity method is illustratively performed to measure the correlations in spontaneous BOLD fluctuations. A network is comprised of nodes and edges; nodes being the brain region of interest (ROI) and edges being the connections between regions. Nodes are defined using the ROIs segmented from an appropriate MRI RAT Brain Atlas. Illustratively, 171 nodes are defined. Voxel time series data are averaged in each node based on the residual images using the nuisance regression procedure. Pearson's correlation coefficients across all pairs of nodes (14535 pairs for 171 nodes) are computed for each subject among all three groups to assess the interregional temporal correlations. The r-values (ranging from −1 to 1) are z-transformed using the Fisher's Z transform to improve normality. For 171 nodes, 171×171 symmetric connectivity matrices are constructed with each entry representing the strength of edge. Group-level analysis is performed to look at the functional connectivity in controls, one hit and three hit groups. The resulting Z-score matrices from one-group t-tests are clustered using the K-nearest neighbors clustering method to identify how nodes cluster together and form resting state networks. A Z-score threshold of |Z|=2.3 is applied to remove spurious or weak node connections for visualization purposes.
Beginning on postnatal (P)70, animals are divided into 3 groups (n=6-7/group; Sham Control Group (Control, CG), Injury Group (IG), and Treatment Group (TG) and begin their head impact, and drug regimens. All groups are anaesthetized with 4% isoflurane in oxygen, and Injury group and Treatment group receive the first of two total head impacts) using a custom setup from Animal Imaging Research (AIR; Holden, Mass.) on P70. […]

One compound from US11628160B2, “Compositions and methods for treating brain injury” (Azevan Pharmaceuticals, Inc., priority 2017, dated 2023) can be followed below.

SMILES strings stand for the structures.

As to `C[C@@H](NC(=O)[C@@H](CC(=O)N1CCC(N2CCCCC2)CC1)N1C(=O)[C@@H](N2C(=O)OC[C@@H]2c2ccccc2)[C@H]1/C=C/c1cccc(I)c1)c1ccccc1` [Example 266], the “deficits in learning and memory” value in test [1] is “no deficits in learning and memory”. In addition, in test [2], the “connectivity of hippocampus, Area M” value was “hyperconnectivity compared to Injury group and Control group”; the “connectivity of ventral hippocampus, Area G” value was “hyperconnectivity compared to Injury group and Control group”. In test [2] (even compared to Control group), the “functional connectivity in network circuitry associated with learning, cognition, memory, and attention” value is on record as “enhanced functional connectivity”. In test [2] (166 brain areas), the “resting state functional connectivity network” value is reported as “hyperconnectivity”.
